Source: PubChem BioAssay AID248 (DTP/NCI, 2004)
Values joined by “and” are separate entries in the source; they are usually repeats but may differ in a detail not shown here. Equal entries are not always repeated. Toxic doses and inconclusive results are not listed. Cut-off read from the data, not from the text of the source: active = T/C of 150% or more; inactive = T/C below 125%.

Test system: L1210 leukemia ip in BDF1 mice, survival T/C
Test: NCI In Vivo Anticancer Drug Screen. Data for tumor model L1210 Leukemia (intraperitoneal) in B6D2F1 (BDF1) mice
Details: endpoint: mean survival time, higher = longer survival
Outline: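 In this screen, tumor-bearing mice given compound are compared to those given vehicle, and their survival values are reported as a treated-to-control quotient.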

[1] = dose: 100.0 mg/kg/injection, schedule: Q01DX009 (ip), vehicle: Klucel (hydroxypropylcellulose) (HPC)
[2] = dose: 100.0 mg/kg/injection, schedule: Q04DX003 (ip), vehicle: Klucel (hydroxypropylcellulose) (HPC)
[3] = dose: 200.0 mg/kg/injection, schedule: Q01DX009 (ip), vehicle: Klucel (hydroxypropylcellulose) (HPC)
[4] = dose: 200.0 mg/kg/injection, schedule: Q04DX003 (ip), vehicle: Klucel (hydroxypropylcellulose) (HPC)
[5] = dose: 400.0 mg/kg/injection, schedule: Q01DX009 (ip), vehicle: Klucel (hydroxypropylcellulose) (HPC)
[6] = dose: 400.0 mg/kg/injection, schedule: Q04DX003 (ip), vehicle: Klucel (hydroxypropylcellulose) (HPC)
[7] = dose: 100.0 mg/kg/injection, schedule: Q01DX001 (ip), vehicle: Klucel (hydroxypropylcellulose) (HPC)
[8] = dose: 200.0 mg/kg/injection, schedule: Q01DX001 (ip), vehicle: Klucel (hydroxypropylcellulose) (HPC)
[9] = dose: 400.0 mg/kg/injection, schedule: Q01DX001 (ip), vehicle: Klucel (hydroxypropylcellulose) (HPC)
[10] = dose: 50.0 mg/kg/injection, schedule: Q01DX001 (ip), vehicle: saline
[11] = dose: 100.0 mg/kg/injection, schedule: Q04DX002 (ip), vehicle: Klucel (hydroxypropylcellulose) (HPC)
[12] = dose: 200.0 mg/kg/injection, schedule: Q04DX002 (ip), vehicle: Klucel (hydroxypropylcellulose) (HPC)
[13] = dose: 400.0 mg/kg/injection, schedule: Q04DX002 (ip), vehicle: Klucel (hydroxypropylcellulose) (HPC)
[14] = dose: 75.0 mg/kg/injection, schedule: Q01DX001 (ip), vehicle: saline
[15] = dose: 100.0 mg/kg/injection, schedule: Q01DX001 (ip), vehicle: carboxymethylcellulose (CMC)
[16] = dose: 150.0 mg/kg/injection, schedule: Q01DX001 (ip), vehicle: saline
[17] = dose: 200.0 mg/kg/injection, schedule: Q01DX001 (ip), vehicle: carboxymethylcellulose (CMC)
[18] = dose: 400.0 mg/kg/injection, schedule: Q01DX001 (ip), vehicle: carboxymethylcellulose (CMC)
[19] = dose: 100.0 mg/kg/injection, schedule: Q01DX001 (ip), vehicle: saline
[20] = dose: 100.0 mg/kg/injection, schedule: Q01DX009 (ip), vehicle: saline with Tween-80
[21] = dose: 200.0 mg/kg/injection, schedule: Q01DX009 (ip), vehicle: saline with Tween-80
[22] = dose: 400.0 mg/kg/injection, schedule: Q01DX009 (ip), vehicle: saline with Tween-80
[23] = dose: 100.0 mg/kg/injection, schedule: Q04DX003 (ip), vehicle: saline with Tween-80
[24] = dose: 200.0 mg/kg/injection, schedule: Q04DX003 (ip), vehicle: saline with Tween-80
[25] = dose: 12.5 mg/kg/injection, schedule: Q01DX009 (ip), vehicle: saline
[26] = dose: 50.0 mg/kg/injection, schedule: Q01DX009 (ip), vehicle: saline

Measured: T/C

COc1cc2c(cc1OC)/C(=C\C(=O)N1CCCC1=O)CCC2
inactive: [1] 96 % of control | [2] 104 % of control | [3] 97 % of control | [4] 102 % of control | [5] 94 % of control | [6] 101 % of control

O=C(CCCN1CC=C(c2ccccc2)CC1)c1ccc(N2CCC(O)(c3ccc(Cl)cc3)CC2)cc1
inactive: [7] 89 % of control | [8] 95 % of control | [9] 92 % of control

O=C(O)C(=O)C(Cl)Br (centres undefined)
inactive: dose: 12.5 mg/kg/injection, schedule: Q01DX001 (ip), vehicle: saline 111 % of control | dose: 25.0 mg/kg/injection, schedule: Q01DX001 (ip), vehicle: saline 118 % of control | [10] 111 % of control

O=[N+]([O-])c1ccc(Cl)c(I)c1
inactive: dose: 12.5 mg/kg/injection, schedule: Q01DX009 (ip), vehicle: saline with Tween-80 94 % of control | dose: 25.0 mg/kg/injection, schedule: Q01DX009 (ip), vehicle: saline with Tween-80 94 % of control | dose: 50.0 mg/kg/injection, schedule: Q01DX009 (ip), vehicle: saline + alcohol 92 % of control | dose: 50.0 mg/kg/injection, schedule: Q01DX009 (ip), vehicle: saline with Tween-80 94 % of control | dose: 200.0 mg/kg/injection, schedule: Q01DX009 (ip), vehicle: saline + alcohol 92 % of control

CCOC(=O)C1(C(=O)OCC)C(C)CC(=O)N1c1ccccc1OC (centres undefined)
inactive: [11] 106 % of control | [12] 103 % of control | [13] 97 % of control

CCOC(=O)CNc1ccc(Cl)c(C)c1
inactive: [11] 111 % of control | [12] 107 % of control | [13] 111 % of control

CCCCCCCCCCCC(CCCCCCCC)C1CCCCC1 (centres undefined)
inactive: dose: 100.0 mg/kg/injection, schedule: Q01DX001 (ip), vehicle: saline + alcohol 101 % of control | dose: 200.0 mg/kg/injection, schedule: Q01DX001 (ip), vehicle: saline + alcohol 103 % of control | dose: 400.0 mg/kg/injection, schedule: Q01DX001 (ip), vehicle: saline + alcohol 108 % of control

COc1cc2c(cc1OC)C1=[N+](CCC1)CC2
inactive: [14] 101 % of control | [15] 97 % of control | [16] 102 % of control | [17] 94 % of control | [18] 100 % of control

CC(C)C(N)C(=O)O (centres undefined)
inactive: dose: 50.0 mg/kg/injection, schedule: Q01DX001 (ip), vehicle: Klucel (hydroxypropylcellulose) (HPC) 97 % of control | dose: 75.0 mg/kg/injection, schedule: Q01DX001 (ip), vehicle: acetone 97 % of control | [7] 100 % of control | [15] 96 % of control | [19] 95 % of control | [2] 98 % of control | dose: 150.0 mg/kg/injection, schedule: Q01DX001 (ip), vehicle: acetone 92 % of control | [8] 99 % of control | [17] 96 % of control | dose: 200.0 mg/kg/injection, schedule: Q01DX001 (ip), vehicle: saline 100 % of control | [4] 107 % of control | dose: 300.0 mg/kg/injection, schedule: Q01DX001 (ip), vehicle: acetone 94 % of control | [18] 94 % of control | dose: 400.0 mg/kg/injection, schedule: Q01DX001 (ip), vehicle: saline 92 % of control | [6] 100 % of control

O=C(Nc1ccc(S(=O)(=O)F)cc1)c1ccc(COc2ccc([N+](=O)[O-])cc2Cl)cc1
inactive: [20] 92 % of control | [21] 94 % of control | [22] 94 % of control

NC(=O)c1ccccc1NC(=O)Nc1cc(C(F)(F)F)ccc1Cl
inactive: [1] 96 % of control | [3] 86 % of control | [5] 97 % of control

O=C(Nc1ccc(Cl)cc1[N+](=O)[O-])Oc1ccc(C(=O)OCc2ccccc2)cc1
inactive: [1] 101 % of control | [3] 103 % of control | [5] 110 % of control

O=C(O)c1cccc2nc3ccccc3nc12
inactive: [11] 100 % of control | [12] 102 % of control | [13] 96 % of control

CC(=O)CSc1sc(C(C)=O)c(N)c1C#N
inactive: [20] 91 % of control | [21] 91 % of control | [22] 90 % of control

Oc1ccccc1-c1nnco1
inactive: dose: 50.0 mg/kg/injection, schedule: Q01DX001 (ip), vehicle: carboxymethylcellulose (CMC) 94 % of control | [15] 92 % of control | [17] 94 % of control | [18] 94 % of control

COc1cc(C2CC(C)=C(C)CC2C(=O)O)cc(OC)c1OC (centres undefined)
inactive: [23] 92 % of control | [24] 97 % of control | dose: 400.0 mg/kg/injection, schedule: Q04DX003 (ip), vehicle: saline with Tween-80 96 % of control

O=C1OC(=O)C2=C1C1C3C=CCC3C2N2C=CC=CC12 (centres undefined)
inactive: dose: 50.0 mg/kg/injection, schedule: Q01DX009 (ip), vehicle: Klucel (hydroxypropylcellulose) (HPC) 96 % of control | [1] 103 % of control | [3] 103 % of control

CCCCCCCCCCCCC(=O)N1CCCCC1
inactive: dose: 100.0 mg/kg/injection, schedule: Q04DX002 (ip), vehicle: saline 91 % of control | dose: 200.0 mg/kg/injection, schedule: Q04DX002 (ip), vehicle: saline 102 % of control

N=c1c2ncn(C3OC(CO)C(O)C3O)c2ncn1O (centres undefined)
inactive: [10] 101 % of control | [14] 111 % of control | [19] 103 % of control | [16] 105 % of control

NC1CONC1=O (centres undefined)
inactive: [20] 101 % of control | [21] 98 % of control | [22] 98 % of control

CC(=O)C1=CCCCC1
inactive: [2] 96 % of control | [4] 105 % of control | [6] 93 % of control

N#CC[CH2][Sn]([Br])([Br])[CH2]CC#N
inactive: [25] 103 % of control | [26] 96 % of control

O=C(C#CC(=O)c1ccccc1)c1ccccc1
inactive: dose: 20.0 mg/kg/injection, schedule: Q04DX003 (ip), vehicle: gum acacia 95 % of control | dose: 40.0 mg/kg/injection, schedule: Q04DX003 (ip), vehicle: gum acacia 101 % of control | dose: 80.0 mg/kg/injection, schedule: Q04DX003 (ip), vehicle: gum acacia 100 % of control

C(=C(c1ccccc1)c1ccccc1)c1ccccn1
inactive: [20] 97 % of control | [23] 98 % of control | [21] 100 % of control | [24] 93 % of control | [22] 97 % of control

Nc1ccc(C(=O)O)c(C(=O)O)c1
inactive: [20] 101 % of control | [2] 100 % of control | [21] 91 % of control | [4] 98 % of control | [6] 102 % of control

Nc1nc(N)c(-c2ccc(Cl)c(Cl)c2)c(COc2ccc(NC(=O)Nc3ccc(S(=O)(=O)F)c(Cl)c3)c(Cl)c2)n1
inactive: dose: 75.0 mg/kg/injection, schedule: Q01DX001 (ip), vehicle: saline with Tween-80 90 % of control | dose: 150.0 mg/kg/injection, schedule: Q01DX001 (ip), vehicle: saline with Tween-80 98 % of control

NC1Cc2ccccc2C1
inactive: [25] 98 % of control | dose: 25.0 mg/kg/injection, schedule: Q01DX009 (ip), vehicle: saline 110 % of control and 93 % of control | dose: 25.0 mg/kg/injection, schedule: Q04DX003 (ip), vehicle: saline 104 % of control | [26] 92 % of control and 95 % of control | dose: 50.0 mg/kg/injection, schedule: Q04DX003 (ip), vehicle: saline 109 % of control | dose: 100.0 mg/kg/injection, schedule: Q01DX009 (ip), vehicle: saline 106 % of control and 92 % of control | dose: 100.0 mg/kg/injection, schedule: Q04DX003 (ip), vehicle: saline 96 % of control | dose: 200.0 mg/kg/injection, schedule: Q04DX003 (ip), vehicle: saline 92 % of control

CC(C)Nc1ccc(C(=O)O)cc1
inactive: [7] 100 % of control | [2] 98 % of control | [8] 91 % of control | [4] 100 % of control | [9] 102 % of control | [6] 100 % of control
